The values that follow come from patent publication US20210238173A1, “MITOGEN-ACTIVATED PROTEIN KINASE KINASE 7 INHIBITORS” (Yeda Research and Development Co. Ltd., priority 2018, published 2021).

This assay deals with primary mouse B-cells. In words: Primary B-cell activation (CD86+ FACS) in response to LPS. It is filed as cell-based. Particulars: Mus musculus, B-cell, 10 μM, 2 hours pre-incubation. The text has this:
Compounds Block Activation of Primary Mouse B-Cells:
JNK is known to mediate activation of B-cells in response to lypopolysacharide (LPS) through the TLR4 signaling pathway as well as in response to B-cell receptor activation (stimulated e.g. with an anti-IgM antibody). Primary B-cells were isolated from the spleen of mice and assessed for their B-cell activation, via FACS analysis of CD86+ expression, in response to LPS in the presence or absence of the covalent MKK7 enzyme inhibitors presented herein, as well as a positive control JNK inhibitor, JNK-IN-8.
At 10 μM and 2 hours pre-incubation before stimulation, GO80 was able to inhibit 60% of the CD86+ response.

`C=CC(=O)Nc1cccc(-c2n[nH]c3cc(C)ccc23)c1` [GO80] returned an inhibition at 10 µM of 60%.
